Experimental data: PubChem BioAssay AID493102 (Broad Institute, 2011)

Tested on: SK-MEL-5 TRPM1-promoter luciferase reporter, 24 h
Assay: TRPM1 promoter luciferase signal decrease, dose response, MITF inhibitor project, cell-based, SK-MEL-5, cherry-picked, set 4 (AID 493102);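 note: actives lower the luciferase signal so the potency reflects inhibition of reporter expression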

| Compound | AC50 [µM] |
| --- | --- |
| O=C1C(Cl)=C(N2CCN(c3ccccc3[N+](=O)[O-])CC2)C(=O)c2ccccc21 | 3.59 |
| Cc1ccc(C)c(-n2c3nc(=O)[nH]c(=O)c-3cc3cc([N+](=O)[O-])ccc32)c1 | 8.42 |
| COc1ccc(C)cc1Nc1nc(N)c2cc(OC)c(OC)cc2n1 | 14.2 |
| O=C(C[n+]1cccc2ccccc21)c1ccc([N+](=O)[O-])cc1 | 6.21 |
| O=C(Nc1ccc(N2CCN(C(=O)c3ccccc3)CC2)cc1)c1ccc([N+](=O)[O-])o1 | 17.9 |
| O=C(CCl)Nc1cccc(S(=O)(=O)NC2=NCCCCC2)c1 | 7.85 |
| COc1cc(/C=N/NS(=O)(=O)c2ccc3ccccc3c2)ccc1OCc1ccc(C(=O)O)cc1 | 4.78 |
| CC(=O)c1cccc(NC(=O)/C=C/c2ccc([N+](=O)[O-])s2)c1 | 7.16 |
| COC(=O)C1=C(CN2CCCc3ccccc32)NC(=O)NC1c1ccc(F)cc1 (stereo unspecified) | 2.16 |
| COc1cc2c(c(OC)c1OC)-c1ccc(OC)c(=O)cc1C(NC(C)=O)CC2 (stereo unspecified) | 0.056 |
| CN(C)c1cc[n+](CC(=O)c2ccc(-c3ccccc3)cc2)cc1 | 2.6 |
| CC(C)CN=C(NS(=O)(=O)c1ccccc1)C(Cl)(Cl)Cl | 11.1 |
| CCN1CCc2c(sc(NC(=O)c3ccc(S(=O)(=O)N4CCCCCC4)cc3)c2C(=O)NC)C1 | 16.6 |
| Cc1ccc(Oc2c(C(N)=O)cc([N+](=O)[O-])cc2[N+](=O)[O-])cc1 | 3.68 |
| Cc1c(CCOC(=O)c2ccc(Cl)cc2Cl)sc[n+]1CC(=O)c1ccc(Br)cc1 | 19.8 |
| CCC(=O)Nc1cc2nn(-c3ccc(C)cc3)nc2cc1C | 4.15 |
| Oc1c(CN2CCCCC2)cc(COCc2ccccc2)c2cccnc12 | 2.17 |
| O=C(CCl)N1CCN(S(=O)(=O)c2ccc3c(c2)CCC3)CC1 | 20.8 |
| OCC1OC(n2cnc3c(NCc4ccco4)ncnc32)C(O)C1O (stereo unspecified) | 3.88 |
| Cc1ccc(NC2=C(Cl)C(=O)c3ccccc3C2=O)cc1 | 5.25 |
| CC(C)(C)c1ccc(-c2cn(-c3ccc(Br)cc3)c3[n+]2CCCS3)cc1 | 3.2 |
| Cc1ccc2nc(NC(=O)CSCC(=O)OCC(=O)c3ccccc3)sc2c1 | 5.78 |
| COc1ccccc1CNCC(O)Cn1c2ccccc2c2ccccc21 (stereo unspecified) | 18.7 |

| Compound | AC50 [µM] |
| --- | --- |
| Cc1cc(C(=O)Nc2cccc(C(=O)O)c2)oc1C | 4.35 |
| S=C=Nc1cccc(C2(N3CCCCC3)CCCCC2)c1 | 7.36 |
| O=C(Nc1ccc(N2CCOCC2)cc1)c1cnsn1 | 3.05 |
| O=C(N/N=C/c1ccc(F)cc1)c1c(O)c2ccccc2[nH]c1=O | 9.64 |
| CC(C)(C)c1ccc(OCCCNCc2ccccc2)cc1 | 18.4 |
| O=C(NCc1cccs1)c1nc2c(nnn2Cc2ccccc2Cl)c(=O)[nH]1 | 6.66 |
| CCN(CC)CCn1nc2c3c(cccc3c1=O)-c1ccccc1-2 | 5.92 |
| COc1cc(/C=C/C(=O)c2ccc3c(c2)OCCO3)cc(Br)c1OCC(=O)N(C)C | 6.17 |
| CC(=O)c1ccc(Sc2nnnn2-c2ccccc2)c([N+](=O)[O-])c1 | 7.82 |
| CCOc1ccccc1NC(=O)C(=O)N/N=C/c1cc(Br)ccc1O | 3.34 |
| Cc1ccc(-c2c[n+](Cc3ccc(Cl)c(Cl)c3)c3n2CCC3)cc1 | 3.73 |
| CC(C)(C)C(=O)/C(=C/c1ccncc1)n1cncn1 | 6.63 |
| O=C(/C=C/c1cccc([N+](=O)[O-])c1)n1cnc2ccccc21 | 4.39 |
| COc1cc(NC(=O)COc2cc(O)c3c(c2)OC(C)(C)CC3=O)cc(OC)c1OC | 5.36 |
| NC(=O)C1CCN(C2=C(NS(=O)(=O)c3ccc(Br)cc3)C(=O)c3ccccc3C2=O)CC1 | 11.9 |
| O=C(/C=C/c1ccccc1)Nc1cccc(C(=O)O)c1 | 1.52 |
| CCSCCc1nnc(NC(=O)Nc2cccc(C(F)(F)F)c2)s1 | 8.99 |
| Cc1ccc(NC(=O)CN(C)C(=O)Cn2ncc(Cl)c(Cl)c2=O)cc1 | 9.16 |
| CC(=O)Nc1ccc(S(=O)(=O)NC2=C(N3CCN(C)CC3)C(=O)c3ccccc3C2=O)cc1 | 3.65 |
| O=C(Nc1nc(-c2ccccn2)cs1)c1ccccc1-n1cnnn1 | 6.96 |
| CC(C)c1ccc(N2C(=O)NC(=O)/C(=C/C=C/c3ccco3)C2=O)cc1 | 5.89 |
| CC1(C)CC(NC(=O)c2ccc(Cl)c(S(=O)(=O)N(Cc3ccccc3)c3ccccc3)c2)CC(C)(C)N1 | 10.3 |
| CN1CCN(c2ccc(NC(=O)c3ccc([N+](=O)[O-])o3)cc2Cl)CC1 | 9.02 |

| Compound | AC50 [µM] |
| --- | --- |
| CC(C)(C)c1ccc(-c2noc(CCC(=O)NCc3ccco3)n2)cc1 | 0.122 |
| Cc1c(Cl)c([N+](=O)[O-])nn1Cc1ccc(C(=O)N/N=C\c2cc(Cl)ccc2O)o1 | 3.47 |
| COc1ccc(CNCCC(c2ccc(F)cc2)c2ccc(OC)cc2)cc1 (stereo unspecified) | 9.89 |
| CCc1ccccc1NC(=O)CN(C)C(=O)Cn1ncc(Cl)c(Cl)c1=O | 11 |
| C/C(=N\NC(=O)C(c1ccccc1)c1ccccc1)c1ccccn1 | 5.96 |
| CC(C)c1oc(=O)cc2c1[C@@H](O)[C@H]1OC(=O)[C@@]3(C)C[C@@H](O)[C@@H](O)[C@@]2(C)C13 (stereo partly specified) | 1.63 |
| O=C(Nc1cccc(S(=O)(=O)N2CCCCC2)c1)c1ccc([N+](=O)[O-])o1 | 11.9 |
| CC(=O)Nc1sc(C)c(C)c1C(=O)OCC(=O)N(CC(C)C)c1c(N)n(Cc2ccccc2)c(=O)[nH]c1=O | 5.29 |
| CCN(CC)S(=O)(=O)c1cccc(C(=O)N/N=C/c2ccc([N+](=O)[O-])o2)c1 | 14.1 |
| O=C(c1ccccc1)c1cc(Cl)ccc1N1C(=O)C=CC1=O | 11.9 |
| O=C(N/N=C/c1ccc(O)c2ncccc12)c1cccc(Br)c1 | 7.28 |
| Cc1cc(-n2c(C)cc(C(=O)CCl)c2C)no1 | 5.5 |
| CCOc1ccc(C(=O)Nc2cccc(C(=O)O)c2C)cc1Cl | 8.56 |
| Cc1ccc(-c2c[n+](Cc3cccc(Cl)c3)c3n2CCC3)cc1 | 12.2 |
| CCN1CCc2c(sc(NC(=O)c3ccc(S(=O)(=O)N4CCCC4)cc3)c2C(=O)NC)C1 | 9.14 |
| Cc1[nH]nc2nc(SCC(=O)NCCC3=CCCCC3)n(-c3ccc(Br)cc3)c(=N)c12 | 2.46 |
| O=C(CNc1cccc2ccccc12)N/N=C/c1ccc([N+](=O)[O-])o1 | 5.04 |
| O=C(CCl)Nc1cccc(-c2cnc3ccccc3n2)c1 | 4.02 |
| COc1cccc2sc(N(CCCN(C)C)C(=O)C(c3ccccc3)c3ccccc3)nc12 | 15.1 |
| O=C(CCl)N(c1ccccc1)C1CCS(=O)(=O)C1 (stereo unspecified) | 9.35 |
| CC(C)Oc1ccc(C(CCN)C2CCCCC2)cc1 (stereo unspecified) | 9.99 |
| Cc1ccc(C(=O)Nc2cnc3ccccc3c2)cc1 | 1.15 |
| O=C1/C(=N\S(=O)(=O)c2cccs2)C([n+]2ccccc2)=C([O-])c2ccccc21 | 1.07 |

| Compound | AC50 [µM] |
| --- | --- |
| CCN(Cc1ccc(OC)c(F)c1)C(=O)CCl | 3.36 |
| C=CCn1c(C)cc(C2=NNC(=NC(C)(C)C)SC2)c1C | 4.09 |
| CCOc1cc(/C=C2/NC(=S)NC2=O)ccc1OCc1ccc([N+](=O)[O-])cc1 | 8.19 |
| COc1ccc(-c2cc(-c3ccccc3)[n+](C)c(-c3ccccc3)c2)cc1 | 3.2 |
| CN1CCN(c2ccc(NC(=S)NC(=O)c3cccc4ccccc34)cc2)CC1 | 9 |
| O=C(Cn1ncc(Cl)c(Cl)c1=O)NC1CCCCC1 | 6.82 |
| O=C(c1ccc([N+](=O)[O-])s1)N1CCCc2ccccc21 | 11.2 |
| N#Cc1c(NC(=O)CSc2ncn[nH]2)sc2c1CCCCC2 | 0.371 |
| CCOC(=O)CCc1ccc(NC(=O)/C=C/c2ccc([N+](=O)[O-])o2)cc1 | 6.83 |
| COc1cc(SC)ccc1C(=O)Nc1ncc(C)s1 | 3.65 |
| CCC[n+]1c(C)sc2c3c(ccc21)CCCC3 | 9.87 |
| Cc1cc(C(=O)COc2cccnc2[N+](=O)[O-])c(C)n1-c1ccccc1 | 1.48 |
| CC(C)C(=O)N1CCN(c2ccc(NC(=O)c3ccc([N+](=O)[O-])o3)cc2)CC1 | 7.98 |
| CCC(=O)N1CCN(c2ccc(Cl)cc2NC(=O)c2ccc([N+](=O)[O-])o2)CC1 | 12.4 |
| CCOc1ccc(OCc2ccc(C(=O)N/N=C(\C)c3ccccn3)cc2)cc1 | 3.64 |
| N=c1n(CC(=O)c2ccc([N+](=O)[O-])cc2)c2ccccc2n1Cc1ccccc1Cl | 4.03 |
| CCOC(=O)c1c(C)oc2c(F)c(F)c(F)c(F)c2c1=O | 2.32 |
| CCOc1ccc(NC(=O)CCC(=O)N/N=C/c2ccc([N+](=O)[O-])s2)cc1 | 6.21 |
| O=C(N/N=C/c1cccc2cccnc12)c1ccccc1O | 24.8 |
| CCOC(=O)Cn1cc([N+](=O)[O-])nc1[N+](=O)[O-] | 29.5 |
| CCOC(=O)c1ccc(NC2=CC(=O)C(=O)c3ccccc32)cc1 | 4.3 |
| CC1=C(CC(=O)c2ccccc2)C(=O)c2ccccc2C1=O | 7.15 |
| O=C(Nc1ccc(N2CCN(C(=O)c3ccc(Cl)cc3)CC2)cc1)c1ccc([N+](=O)[O-])o1 | 7.32 |

| Compound | AC50 [µM] |
| --- | --- |
| CC1CCCC(NC(=O)NC(=O)CCl)C1C (stereo unspecified) | 12.4 |
| O=[N+]([O-])c1ccc(-n2nnnc2-c2ccccc2)c([N+](=O)[O-])c1 | 7.37 |
| OCCNc1c2ccccc2nc2c(F)c(F)c(F)c(F)c12 | 4.14 |
| O=C(N/N=C\c1cc(Br)ccc1O)c1ccc(S(=O)(=O)N2CCCCC2)cc1 | 1.78 |
| O=C(N/N=C\c1cc(Cl)ccc1O)c1ccc(S(=O)(=O)N2CCCCC2)cc1 | 2.81 |
| N=c1n(CCN2CCCC2)c2ccccc2n1CC(O)c1ccc(Cl)c(Cl)c1 (stereo unspecified) | 11.8 |
| N=c1n(Cc2ccc(Cl)cc2)c2ccccc2n1CC(O)COc1ccccc1 (stereo unspecified) | 9.25 |
| CCn1c(=O)c([N+](=O)[O-])c(Cl)c2ccccc21 | 7.2 |
| COc1cccc(/C=N/Nc2ccc(C(=O)O)cc2)c1O | 0.333 |
| Cc1c(N=C2C=CC(=O)c3ccccc32)c(=O)n(-c2ccccc2)n1C | 5.26 |
| Cc1ccc(C(=O)N/C(=C\c2ccc(-c3ccc(Br)cc3)o2)C(=O)NCCCN(C)C)cc1 | 6.84 |
| CC(=O)OCCNc1cc(Sc2nc3ccccc3[nH]2)c2nonc2c1[N+](=O)[O-] | 11.5 |
| O=[N+]([O-])c1ccc(Sc2cc[n+]([O-])c3ccccc23)c([N+](=O)[O-])c1 | 5.92 |
| O=C(N/N=C/c1cc(Cl)ccc1O)c1ccncc1 | 8.98 |
| CCN1c2ccccc2NC2N=C(OC)C(c3ccccc3)C21 (stereo unspecified) | 7.52 |
| Cc1c(C#N)c(NC(=O)CCl)n(Cc2cccs2)c1C | 7.06 |
| CC(C)c1ccc(/C=N/Nc2ccc(C(=O)O)cc2)cc1 | 3.53 |
| Cc1cc(C)cc(NC(=O)c2ccc([N+](=O)[O-])o2)c1 | 16.6 |
| COc1cc2c(cc1OC)C(C)N(S(=O)(=O)c1cnc(Cl)c(Cl)c1)CC2 (stereo unspecified) | 12.1 |
